Data from patent USRE43343E1, “Inhibitors of histone deacetylase” (Methylgene Inc., priority 1999, dated 2012).

The compounds below were run against T1, recombinant human HDAC-1 enzyme (rHDAC-1) (Homo sapiens, UniProt Q13547) (assay: Histone deacetylase inhibition, recombinant human HDAC-1). Details: cloned recombinant human HDAC-1 from Baculovirus insect cell expression system.
T1 construct: made in house; host or cells: Baculovirus insect cell expression system
Type: biochemical
Experimental: (§1) The reaction was stopped by adding acetic acid (0.04 M, final concentration) and HCl (250 mM, final concentration). The mixture was extracted with ethyl acetate and the released [^3H]-acetic acid was quantified by scintillation counting. For inhibition studies, the enzyme was preincubated with compounds at 4° C. for 30 minutes prior to initiation of the enzymatic assay. IC50 values for HDAC enzyme inhibitors were determined by performing dose response curves with individual compounds and determining the concentration of inhibitor producing fifty percent of the maximal inhibition.

T1 sequence (Q13547 whole entry): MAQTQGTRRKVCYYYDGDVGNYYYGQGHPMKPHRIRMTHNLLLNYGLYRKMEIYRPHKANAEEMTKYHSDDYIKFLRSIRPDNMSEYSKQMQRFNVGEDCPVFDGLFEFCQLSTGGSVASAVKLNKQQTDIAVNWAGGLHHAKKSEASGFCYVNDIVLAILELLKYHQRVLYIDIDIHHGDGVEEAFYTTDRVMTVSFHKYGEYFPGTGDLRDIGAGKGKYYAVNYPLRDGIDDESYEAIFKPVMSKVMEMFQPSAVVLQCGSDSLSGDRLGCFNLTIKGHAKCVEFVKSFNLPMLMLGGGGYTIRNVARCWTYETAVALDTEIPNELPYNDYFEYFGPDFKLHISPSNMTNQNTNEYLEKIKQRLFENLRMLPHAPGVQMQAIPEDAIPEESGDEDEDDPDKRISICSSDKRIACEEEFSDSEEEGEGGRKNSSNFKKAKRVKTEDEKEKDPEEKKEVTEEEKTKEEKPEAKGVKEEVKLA

Compound	IC50 [nM]
COc1ccc(S(=O)(=O)Nc2ccc(CCC(=O)Nc3ccccc3N)cc2)cc1OC [Compound 121]	23000
Nc1ccccc1NC(=O)CCc1ccc(CC(=O)c2ccccc2)o1 [Compound 144]	6900
O=C(NO)c1ccc(/C=C/c2ccccc2)cc1 [Compound 151]	2300
O=C(NO)c1ccc(CCCCCc2ccccc2)cc1 [Compound 153]	4800
O=C(CCc1ccc(CCc2ccccc2)cc1)NO [Compound 157]	2400
COc1ccc(NS(=O)(=O)c2ccc(/C=C/C(=O)Nc3nnc(S)s3)cc2)cc1OC [Compound 164]	5000

Further lines, results first:

IC50 [nM]	Compound
2300	COc1ccc(NS(=O)(=O)c2ccc(/C=C/C(=O)Nc3ccccc3N)cc2)cc1OC [Compound 118]
2300	COc1ccc(S(=O)(=O)Nc2ccc(/C=C/C(=O)Nc3ccccc3N)cc2)cc1 [Compound 122]
300	O=C(C#Cc1ccc(NS(=O)(=O)c2ccc(-c3ccccc3)cc2)cc1)NO [Compound 128]
500	O=C(/C=C/c1ccc(CC(O)c2ccccc2)o1)NO (stereo not drawn) [Compound 136]
910	O=C(/C=C/c1ccc(NC(=O)Nc2cccc3ccccc23)cc1)NO [Compound 146]
480	COc1ccc(NC(=O)Nc2ccc(/C=C/C(=O)NO)cc2)cc1OC [Compound 147]
100	O=C(NO)c1ccc(CCCC(O)c2ccc3ccccc3c2)cc1 (stereo not drawn) [Compound 149]
900	O=C(CCc1ccc(CCCCc2ccccc2)cc1)NO [Compound 154]
750	O=C(CCCc1ccc(CCCCc2ccccc2)cc1)NO [Compound 156]
1500	Cc1ccc(NS(=O)(=O)c2ccc(/C=C/C(=O)Nc3ccccc3N)cc2)cc1 [Compound 159]
1200	Nc1ccccc1NC(=O)/C=C/c1ccc(S(=O)(=O)Nc2ccc(-c3ccccc3)cc2)cc1 [Compound 160]
50	Cc1ccc(NS(=O)(=O)c2ccc(/C=C/C(=O)NO)cc2)cc1 [Compound 161]
2000	O=C(/C=C/c1ccc(NS(=O)(=O)c2ccc(-c3ccccc3)cc2)cc1)Nc1nnc(S)s1 [Compound 165]

What follows are compounds tested on histone deacetylase in nuclear extracts from H446 cells (pooled HDACs) (assay: Histone deacetylase inhibition, H446 nuclear extracts (pooled HDACs)). Details: @ 20 μM.
Type: biochemical, human
Experimental: as §1

Compound	pooled HDACs percent inhibition at the specified concentration [% @ 20 μM]
Nc1ccccc1NC(=O)/C=C/c1ccc(CC(=O)c2ccccc2)o1 [Compound 139]	44
Nc1ccccc1NC(=O)CCc1ccc(CC(=O)c2ccccc2)o1 [Compound 144]	6
O=C(NO)c1ccc(CCCC(O)c2ccc3ccccc3c2)cc1 (stereo not drawn) [Compound 149]	8
O=C(CCCc1ccc(CCCc2ccccc2)cc1)NO [Compound 155]	39
Nc1ccccc1NC(=O)/C=C/C#Cc1cccc(NS(=O)(=O)c2ccccc2)c1 [Compound 168]	0
CN(C)c1ccc(CCc2ccccc2C(=O)NO)cc1 [Compound 173]	35
O=C(CCC1CCC(CC(=O)c2ccccc2)O1)NO (stereo not drawn) [Compound 176]	20
O=C(CCCc1ccc(C(=O)NO)cc1)c1ccccc1 [Compound 177]	10
Nc1ccccc1NC(=O)c1ccc(CC(=O)c2ccccc2)o1 [Compound 178]	2

Same assay, conditions: [3H]-acetylated histone substrate

IC50 [nM]	Compound
2000	O=C(CCc1ccc(CCCCc2ccccc2)cc1)NO [Compound 154]
> 20000	O=C(Cc1ccc(CCCc2ccccc2)cc1)NO [Compound 175]
